According to the supplement of paper PMC10307832:

Legend:
Assay in all cases: relative viability (nuclei count vs DMSO), 5 days (fraction); higher = more cells survive
Vemurafenib + Vorinostat = compound: CCCS(=O)(=O)Nc1ccc(F)c(C(=O)c2c[nH]c3ncc(-c4ccc(Cl)cc4)cc23)c1F [Vemurafenib] + O=C(CCCCCCC(=O)Nc1ccccc1)NO [Vorinostat] (partner 1 µM)
Method in brief: (§1)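 Lung cancer cell lines, seeded in 1536-well plates, were treated the following day by pin tool with a single drug or with five library-drug doses (not always all listed) in √10 steps on top of a fixed anchor-drug dose. Cells were fixed and nuclei stained in one step after 5 days, and nuclei were counted. Relative viability is the nuclei count for treated wells divided by that for vehicle wells, reported as medians of duplicate plates.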

Alpelisib + AZD7762 = compound: Cc1nc(NC(=O)N2CCC[C@H]2C(N)=O)sc1-c1ccnc(C(C)(C)C(F)(F)F)c1 [Alpelisib] + NC(=O)Nc1cc(-c2cccc(F)c2)sc1C(=O)N[C@H]1CCCNC1 [AZD7762] (partner 0.2 µM)
Method in brief: as §1

OSI-027 + Olaparib = compound: COc1cccc2cc(-c3nc([C@H]4CC[C@H](C(=O)O)CC4)n4ncnc(N)c34)[nH]c12 [OSI-027] + O=C(c1cc(Cc2n[nH]c(=O)c3ccccc23)ccc1F)N1CCN(C(=O)C2CC2)CC1 [Olaparib] (partner 8 µM)
Method in brief: as §1

Vemurafenib + Lapatinib = compound: CCCS(=O)(=O)Nc1ccc(F)c(C(=O)c2c[nH]c3ncc(-c4ccc(Cl)cc4)cc23)c1F [Vemurafenib] + CS(=O)(=O)CCNCc1ccc(-c2ccc3ncnc(Nc4ccc(OCc5cccc(F)c5)c(Cl)c4)c3c2)o1 [Lapatinib] (partner 2 µM)
Method in brief: as §1

Cell Line	relative viability (Vemurafenib + Vorinostat; first compound 0.03162 µM)	relative viability (Vemurafenib + Vorinostat; first compound 0.1 µM)	relative viability (Vemurafenib + Vorinostat; first compound 0.3162 µM)	relative viability (Vemurafenib + Vorinostat; first compound 1 µM)	relative viability (Alpelisib + AZD7762; first compound 0.04 µM)	relative viability (Alpelisib + AZD7762; first compound 0.1265 µM)	relative viability (Alpelisib + AZD7762; first compound 0.4 µM)	relative viability (Alpelisib + AZD7762; first compound 1.265 µM)	relative viability (Alpelisib + AZD7762; first compound 4 µM)	relative viability (OSI-027 + Olaparib; first compound 0.01 µM)	relative viability (OSI-027 + Olaparib; first compound 0.03162 µM)	relative viability (OSI-027 + Olaparib; first compound 0.1 µM)	relative viability (OSI-027 + Olaparib; first compound 0.3162 µM)	relative viability (OSI-027 + Olaparib; first compound 1 µM)	relative viability (Vemurafenib + Lapatinib; first compound 0.03162 µM)	relative viability (Vemurafenib + Lapatinib; first compound 0.1 µM)	relative viability (Vemurafenib + Lapatinib; first compound 0.3162 µM)	relative viability (Vemurafenib + Lapatinib; first compound 1 µM)
LK-2	0.261	0.271	0.3	0.247	0.402	0.253	0.442	0.209	0.123	0.611	0.642	0.654	0.476	0.173	0.674	0.867	0.835	0.505
LOU-NH91	0.87	0.742	0.692	0.933	0.735	0.608	0.663	0.556	0.543	0.91	0.907	0.844	0.843	0.638	0.683	0.78		0.781
LU99A	0.513	0.578		0.466	0.335	0.361	0.408	0.365	0.398	0.279	0.231	0.251	0.201	0.2	0.878	0.985	1.03	0.916
LXF-289	0.708	0.656	0.805	0.789	1.05	1.1	1.21	1.18	1.27	1.07	1.05	1.13	0.971	0.625	0.892	0.883	0.87	0.965
NCI-H23	0.53	0.588	0.561	0.402	0.23	0.211	0.396	0.154	0.224	0.339	0.341	0.3	0.141	0.188	0.87	1.16	0.749	1.36
NCI-H322M	0.84		1.11	0.829	0.594	0.556	0.47	0.424	0.458	0.818	0.718	0.813	0.666	0.505	0.583		0.801	0.491
NCI-H358	0.671	0.587	0.768	0.65	0.506	0.386	0.497	0.301	0.295	0.708	0.546	0.579	0.572	0.422	0.408		0.505	0.407
NCI-H460	0.661	0.729	0.665	0.723	0.542	0.638	0.746	0.513	0.404	0.663	0.369	0.41	0.448	0.239	0.929	1.08	0.82	0.926
NCI-H596	0.587	0.742	0.465	0.497	0.895	1.05	1.03	0.725	0.472	0.743	0.688	0.651	0.684	0.612	1.04	1.03	0.874	1.07
NCI-H647	0.411	0.643	0.6	0.442	0.586	0.322	0.688	0.393	0.325	0.681	0.613	0.56	0.463	0.398	0.951	1.06	0.852	0.949
NCI-H650	0.413	0.384	0.263	0.296	1.08	0.769	0.931	0.773	0.837	0.406	0.38	0.364	0.337	0.219	0.838	1.15	0.313	0.681
NCI-H727	1.01	0.978	1.41	1.27	0.472	0.567	0.625	0.673	0.555	0.675	0.688	0.671	0.752	0.556	0.653	0.772	1.16	0.886
NCI-H838	0.683	0.726	0.6	0.844	0.916	0.946	1.02	0.775	0.86	0.791	0.856	0.705	0.492	0.437	0.877	1.05		1.12
NCI-H1355	0.56	0.58	0.566	0.642	0.792	0.78	0.704	0.636	0.553	0.702	0.667	0.663	0.521	0.342	0.962	0.956	0.837	1.08
NCI-H1395	0.627	0.707	0.499	0.709	0.438	0.379	0.404	0.393	0.392	0.525	0.412	0.48	0.376	0.362	0.891	0.95		1.19
NCI-H1437	0.798	0.825	0.873	0.945	1.12	1.18	1.12	1.02	1.06	0.646	0.664	0.63	0.644	0.53	0.748	0.793	0.698	0.876
NCI-H1651	0.524	0.581	0.471	0.625	0.458	0.442	0.535	0.536	0.359	0.199	0.173	0.178	0.189	0.186	0.853	0.772	0.756	0.824
NCI-H1666	0.972	1.05	1.08	1.01	0.902	0.762	1.03	0.865	0.711	0.777	0.67	0.744	0.77	0.71	0.581		0.72	0.654

Cell Line	relative viability (Vemurafenib + Vorinostat; first compound 0.03162 µM)	relative viability (Vemurafenib + Vorinostat; first compound 0.1 µM)	relative viability (Vemurafenib + Vorinostat; first compound 0.3162 µM)	relative viability (Vemurafenib + Vorinostat; first compound 1 µM)	relative viability (Alpelisib + AZD7762; first compound 0.04 µM)	relative viability (Alpelisib + AZD7762; first compound 0.1265 µM)	relative viability (Alpelisib + AZD7762; first compound 0.4 µM)	relative viability (Alpelisib + AZD7762; first compound 1.265 µM)	relative viability (Alpelisib + AZD7762; first compound 4 µM)	relative viability (OSI-027 + Olaparib; first compound 0.01 µM)	relative viability (OSI-027 + Olaparib; first compound 0.03162 µM)	relative viability (OSI-027 + Olaparib; first compound 0.1 µM)	relative viability (OSI-027 + Olaparib; first compound 0.3162 µM)	relative viability (OSI-027 + Olaparib; first compound 1 µM)	relative viability (Vemurafenib + Lapatinib; first compound 0.03162 µM)	relative viability (Vemurafenib + Lapatinib; first compound 0.1 µM)	relative viability (Vemurafenib + Lapatinib; first compound 0.3162 µM)	relative viability (Vemurafenib + Lapatinib; first compound 1 µM)
NCI-H1734	0.809	0.783	0.759	0.702	0.604	0.556	0.584	0.397	0.209	0.656	0.597	0.599	0.566	0.401	0.872	1.04	0.903	0.993
NCI-H1755	0.749	0.728	0.68	0.778	0.378	0.544	0.465	0.326	0.362	0.874	0.849	0.883	0.761	0.486	0.925	1.02	0.777	0.988
NCI-H1793	0.652	0.426	0.78	0.702	0.473	0.332	0.383	0.374	0.23	0.866	0.791	0.729	0.363	0.233	0.442		0.645	0.872
NCI-H1915	0.468	0.468	0.455	0.478	0.688	0.713	0.69	0.676	0.611	0.284	0.274	0.259	0.298	0.237	0.894	0.951	0.87	0.985
NCI-H1944	0.538		0.671	0.515	0.452	0.6	0.605	0.3	0.344	0.371	0.373	0.422	0.355	0.265	0.818	0.815	0.725	0.789
NCI-H1975	0.715	0.661	0.602	0.726	0.731	0.621	0.731	0.463	0.374	0.803	0.609	0.755	0.76	0.478	0.806	0.983	0.709	0.919
NCI-H1993	0.739		1.02	0.876	0.722	0.656	0.695	0.539	0.472	1.03	0.894	0.902	0.653	0.522	0.843		0.8	0.793
NCI-H2085	0.703	0.736	0.618	0.968	0.946	0.781	1.09	0.944	0.865	0.751	0.771	0.726	0.763	0.633	0.729	0.778	0.766	0.695
NCI-H2087	0.894	0.958	0.531	0.716	1.39	1.3	1.59	1.22	1.36	0.757	0.675	0.586	0.542	0.259	0.761	0.981		0.967
NCI-H2126	0.761	0.576	0.869	0.633	0.998	1.01	0.945	0.904	0.769	0.939	0.904	0.879	0.835	0.578	0.753	0.783	0.862	0.731
NCI-H2170	0.733		0.737	0.754	0.865	0.712	0.891	0.632	0.481	0.664	0.592	0.604	0.525	0.346	0.277	0.244	0.266	0.267
NCI-H2347	0.542	0.539	0.52	0.624	0.756	0.661	0.815	0.81	0.764	0.599	0.536	0.598	0.492	0.344	0.794	1.02	0.628	0.637
NCI-H2405	0.911	0.987		1.03	0.763	0.728	0.686	0.446	0.428	0.886	0.838	0.823	0.694	0.456	0.935	0.986		1.1
NCI-H3122	0.962	0.916	1.01	1.04	0.989	1.03	0.978	0.693	0.589	0.759	0.604	0.682	0.647	0.407	1.03	1.04	1.12	1.02
PC-3 [JPC-3]			0.66	1.06	0.808	0.755	0.781	0.601	0.516	1.13	1.14	1.23	1.08	0.628	0.464		0.626	0.445
PC-14	0.72		0.643	0.655	0.324	0.236	0.448	0.307	0.35	0.228	0.267	0.292	0.306	0.23	0.255		0.287	0.362
RERF-LC-KJ	0.616	0.659	0.625	0.709	0.871	0.99	1.5	0.762	0.724	0.829	0.866	0.82	0.798	0.496	0.782	0.903	0.799	0.891
